Results as given in patent US20260041679A1, “METHOD OF TREATING HYPERTENSION WITH THE ALDOSTERONE SYNTHASE INHIBITOR BAXDROSTAT” (CINCOR PHARMA, INC., priority 2022, published 2026).

System: patients with uHTN
Test: Study 124 Part 1: seated SBP in patients with uncontrolled hypertension (Example 9)
Type: in vivo, human
Parameters: key to Model-Based Least-Squares Mean Change from Baseline (SBP) / LSMEANS change from baseline (SBP) / Model-Based Least-Square Mean Change from Baseline (SBP): LS mean change from baseline in seated SBP, mmHg
Procedure: Study 124 is a double-blind, placebo-controlled, dose range finding, multicenter study conducted in patients with uHTN receiving background antihypertensive agent(s) that are either an ACEI or an ARB, an ACEI/ARB plus a thiazide diuretic, or an ACEI/ARB plus a calcium channel blocker. The study consists of two parts: Part 1 consists of an 8-week treatment period in which the patients are to be assigned to one of 4 dose groups in equal ratio testing 0.5 mg, 1 mg, and 2 mg baxdrostat effects compared to a placebo. Patients are to administer double-blind baxdrostat tablets once per day while they continue taking the background antihypertensive medications. After 8 weeks of double-blind treatment, patients were to enter part 2 of the study unless the patient was assigned to the 2 mg group and the SBP remains ≥130 mmHg. In part 2 of the study, all patients are to cease dosing with background antihypertensive medication and take only baxdrostat 2 mg dose as a monotherapy for 4 weeks.
Key inclusion criteria include that patients are on a stable regimen of anti-hypertensive agents for at least 8 weeks; and have a seated BP≥140 mmHg. Key exclusion criteria include a seated SBP≥180 mmHg and estimated glomerular filtration rate (eGFR)<30 mL/min/1.73 m^2.
In this table, CI=confidence interval, DBP=diastolic blood pressure, LS=least squares, SBP=systolic blood pressure, SE=standard error. The LS means, CIs, and p-values are from an MMRM model with change from baseline as the dependent variable with randomized treatment, visit, and treatment-by-visit interaction as fixed categorical effects; along with covariates of the baseline value, race (African American versus non-African American), and the type of background antihypertensive regimen. The restricted maximum likelihood estimation (REML) approach will be used with an unstructured covariance matrix and the Kenward-Roger approximation for degrees of freedom.

[1] = 2 mg (N = 9), mITT, Female Non-Hispanic Female Patients
[2] = 2 mg (N = 13), mITT, Non-Hispanic Male Patients
[3] = 2 mg (N = 16), mITT Population for Hispanic Compliant Patients
[4] = 2 mg (N = 16), mITT, Hispanic Male Patients
[5] = 2 mg (N = 19), mITT, Female Hispanic/Latino Patients
[6] = Female Hispanic/Latino, mITT, 0.5 mg, Week 6
[7] = Female Hispanic/Latino, mITT, 0.5 mg, Week 8
[8] = Hispanic or Latino, ITT, 0.5 mg, Week 6
[9] = Hispanic or Latino, ITT, 0.5 mg, Week 8
[10] = Hispanic or Latino, ITT, 1 mg, Week 6
[11] = Hispanic or Latino, ITT, 1 mg, Week 8
[12] = Hispanic or Latino, ITT, 2 mg, Week 6
[13] = Hispanic or Latino, ITT, 2 mg, Week 8
[14] = Placebo (N = 8), mITT Population for Compliance for Black Patients

For CCC(=O)N[C@@H]1CCCc2c(-c3ccc4c(c3)CCC(=O)N4C)cncc21 [baxdrostat, (R)—N-(4-(1-methyl-2-oxo-1,2,3,4-tetrahydroquinolin-6-yl)-5,6,7,8-tetrahydroisoquinolin-8-yl) propionamide], the “LS Mean Change from Baseline (SE) in SBP” value (1 mg, Wk 6) was −13.5 (1.88) mm Hg, the “SBP Change from Baseline to Week 8, Mean” value (2 mg) was −19.3 mmHg and the “SBP Change from Baseline to Week 8, Median” value (2 mg) was −18.0 mmHg. For the same compound, the “SBP at Week 8, Median” value (2 mg) was 125.0 mmHg, the “efficacy in adherent Hispanic/Latino patients” value (2 mg) was “effective in adherent Hispanic/Latino, but efficacy response was substantially lower” and the “efficacy in the Black/African American subgroup” value (2 mg) was “effective”. For the same compound, the “Model-Based Least-Squares Mean Change from Baseline (SBP)” value (“Model-Based Least-Squares Mean Change” for short) (2 mg (N = 9), Week 2, mITT, Female Non-Hispanic Female Patients) was −15.6, the “Model-Based Least-Squares Mean Change” value (2 mg (N = 9), Week 4, mITT, Female Non-Hispanic Female Patients) was −23.8 and the “Model-Based Least-Squares Mean Change” value (2 mg (N = 9), Week 6, mITT, Female Non-Hispanic Female Patients) was −26.1. For the same compound, the “Model-Based Least-Squares Mean Change” value (2 mg (N = 9), Week 8, mITT, Female Non-Hispanic Female Patients) was −32.8, the “Comp w/ Placebo at Week 6, Diff (95% CI)” value [1] was −15.8 (−29.06, −2.47) and the “Comp w/ Placebo at Week 8, Diff (95% CI)” value [1] was −19.8 (−29.87, −9.73). For the same compound, the “Model-Based Least-Squares Mean Change” value (2 mg (N = 13), Week 2, mITT, Non-Hispanic Male Patients) was −16.2, the “Model-Based Least-Squares Mean Change” value (2 mg (N = 13), Week 4, mITT, Non-Hispanic Male Patients) was −17.4 and the “Model-Based Least-Squares Mean Change” value (2 mg (N = 13), Week 6, mITT, Non-Hispanic Male Patients) was −21.5. The “Model-Based Least-Squares Mean Change” value (2 mg (N = 13), Week 8, mITT, Non-Hispanic Male Patients) was −22.3, the “Comp w/ Placebo at Week 6, Diff (95% CI)” value [2] was −11.6 (−22.42, −0.83) and the “Comp w/ Placebo at Week 8, Diff (95% CI)” value [2] was −7.4 (−18.32, 3.53). For the same compound, the “LSMEANS change from baseline (SBP)” value (2 mg (N = 16), Week 2, mITT Population for Hispanic Compliant Patients) was −4.6, the “Model-Based Least-Squares Mean Change” value (2 mg (N = 16), Week 2, mITT, Hispanic Male Patients) was −5.1 and the “LSMEANS change from baseline (SBP)” value (2 mg (N = 16), Week 4, mITT Population for Hispanic Compliant Patients) was −13.9. For the same compound, the “Model-Based Least-Squares Mean Change” value (2 mg (N = 16), Week 4, mITT, Hispanic Male Patients) was −14.6, the “LSMEANS change from baseline (SBP)” value (2 mg (N = 16), Week 6, mITT Population for Hispanic Compliant Patients) was −15.4 and the “Model-Based Least-Squares Mean Change” value (2 mg (N = 16), Week 6, mITT, Hispanic Male Patients) was −17.5. For the same compound, the “LSMEANS change from baseline (SBP)” value (2 mg (N = 16), Week 8, mITT Population for Hispanic Compliant Patients) was −22.8, the “Model-Based Least-Squares Mean Change” value (2 mg (N = 16), Week 8, mITT, Hispanic Male Patients) was −21.9 and the “Comp w Placebo at Week 6, Diff (95% CI)” value [3] was −6.0 (−13.91, 2.00). For the same compound, the “Comp w Placebo at Week 8, Diff (95% CI)” value [3] was −6.6 (−13.07, −0.13), the “Comp w/ Placebo at Week 6, Diff (95% CI)” value [4] was −6.2 (−14.14, 1.67) and the “Comp w/ Placebo at Week 8, Diff (95% CI)” value [4] was −3.2 (−9.28, 2.87). For the same compound, the “Model-Based Least-Squares Mean Change” value (2 mg (N = 19), Week 2, mITT, Female Hispanic/Latino Patients) was −6.0, the “Model-Based Least-Squares Mean Change” value (2 mg (N = 19), Week 4, mITT, Female Hispanic/Latino Patients) was −7.1 and the “Model-Based Least-Squares Mean Change” value (2 mg (N = 19), Week 6, mITT, Female Hispanic/Latino Patients) was −8.0. For the same compound, the “Model-Based Least-Squares Mean Change” value (2 mg (N = 19), Week 8, mITT, Female Hispanic/Latino Patients) was −12.6, the “Comp w/ Placebo at Week 6, Diff (95% CI)” value [5] was −1.5 (−13.53, 10.44) and the “Comp w/ Placebo at Week 8, Diff (95% CI)” value [5] was 6.5 (−4.02, 16.98). For the same compound, the “SBP at Week 8, Mean” value (2 mg QD, mITT) was 126.6 mmHg, the “SBP LS mean change from baseline (SE), MMRM” value (2 mg, Week 8) was −19.8 (1.67) mm Hg and the “SBP LS mean difference (SE) vs placebo” value (2 mg, Week 8) was −3.2 (2.23) mmHg. For the same compound, the “LS Mean Change from Baseline (SE) in SBP” value (2 mg, Wk 2) was −8.8 (1.65) mm Hg, the “LS Mean Change from Baseline (SE) in SBP” value (2 mg, Wk 4) was −13.6 (1.65) mm Hg and the “LS Mean Change from Baseline (SE) in SBP” value (2 mg, Wk 6) was −15.7 (1.93) mm Hg. The “Model-based LS mean change from baseline (LSMEANS)” value (“Model-based LS mean change” for short) (Female Hispanic/Latino, mITT, 0.5 mg, Week 2) was −6.2, the “Model-based LS mean change” value (Female Hispanic/Latino, mITT, 0.5 mg, Week 4) was −13.4 and the “Comp w/ Placebo, Diff (95% CI)” value [6] was −4.9 (−16.80, 6.97) 0.412. The “Model-based LS mean change” value [6] was −11.3, the “Comp w/ Placebo, Diff (95% CI)” value [7] was 3.0 (−7.45, 13.46) 0.567 and the “Model-based LS mean change” value [7] was −16.1. The “Model-based LS mean change” value (Hispanic or Latino, ITT, 0.5 mg, Week 2) was −6.9, the “Model-based LS mean change” value (Hispanic or Latino, ITT, 0.5 mg, Week 4) was −13.0 and the “Comp w/ Placebo, Diff (95% CI)” value [8] was −4.1 (−10.84, 2.69) 0.235. The “Model-based LS mean change” value [8] was −13.3, the “Comp w/ Placebo, Diff (95% CI)” value [9] was −1.1 (−4.54, 6.66) 0.709 and the “Model-based LS mean change” value [9] was −17.1. For the same compound, the “Model-based LS mean change” value (Hispanic or Latino, ITT, 1 mg, Week 2) was −7.3, the “Model-based LS mean change” value (Hispanic or Latino, ITT, 1 mg, Week 4) was −8.1 and the “Comp w/ Placebo, Diff (95% CI)” value [10] was −1.4 (−8.71, 5.92). For the same compound, the “Model-based LS mean change” value [10] was −10.6, the “Comp w/ Placebo, Diff (95% CI)” value [11] was 4.0 (−2.00, 10.06) and the “Model-based LS mean change” value [11] was −14.1. For the same compound, the “Model-based LS mean change” value (Hispanic or Latino, ITT, 2 mg, Week 2) was −5.0, the “Model-based LS mean change” value (Hispanic or Latino, ITT, 2 mg, Week 4) was −10.1 and the “Comp w/ Placebo, Diff (95% CI)” value [12] was −2.5 (−9.31, 4.24). The “Model-based LS mean change” value [12] was −11.8, the “Comp w/ Placebo, Diff (95% CI)” value [13] was 1.9 (−3.69, 7.44) and the “Model-based LS mean change” value [13] was −16.3. The “Model-Based Least-Square Mean Change from Baseline (SBP)” value (from here on “Model-Based Least-Square Mean Change”) (Placebo (N = 8), Week 2, mITT Population for Compliance for Black Patients) was −7.7, the “Model-Based Least-Square Mean Change” value (Placebo (N = 8), Week 4, mITT Population for Compliance for Black Patients) was −18.3 and the “Model-Based Least-Square Mean Change” value (Placebo (N = 8), Week 6, mITT Population for Compliance for Black Patients) was −20.6. For the same compound, the “Model-Based Least-Square Mean Change” value (Placebo (N = 8), Week 8, mITT Population for Compliance for Black Patients) was −27.6, the “Comp w/ Placebo at Week 6, Diff (95% CI)” value [14] was −10.3 (−24.04, 3.43) and the “Comp w/ Placebo at Week 8, Diff (95% CI)” value [14] was −13.4 (−25.04, −1.69).
